The text below walks through data of US20220107246A1, “NONCOVALENT TAGS AND RELATED METHODS FOR CYTOSOLIC DELIVERY OF MACROBIOMOLECULES” (University of Washington, priority 2019, published 2022).

Type in all cases: cell-based
For data set [1], the system named is HeLa cells. Kind of data set: Cyt c delivery and intracellular distribution (fluorescence imaging). From the text: For a proof-of-principle application in therapeutic protein delivery, we selected cytochrome c (Cyt c), an intracellular signaling protein for apoptosis, as a model cargo molecule. To track Cyt c delivery and intracellular distribution, it was labeled with a fluorescent dye (AF488, green). Cell nucleic were counterstained by Hoechst 33258 (blue). […] This is expected because Cyt c is a highly water-soluble macromolecule (m.w. ˜12 kDa) that cannot diffuse through the cell membrane by itself. Instead, a minute amount of Cyt c was uptaken by cells but trapped in endosomes/lysosomes (not shown). […] This study proves the feasibility and potential of specific targeting of certain cell signaling nodes inside cells with protein drugs.
(§1) HeLa cells were seeded onto glass-bottom dishes and cultured overnight. The cells were treated with cyt c (tagged or untagged) of various concentrations in culture media for 4 h, washed, and cultured in fresh media for another 48 h. Cell viability was measured using the dual-color LIVE/DEAD Viability/Cytotoxicity Kit following the manufacturer's instruction.

Data set [2] concerns HeLa cells. Kind of data set: Cancer cell viability upon treatment with cytochrome c (LIVE/DEAD). As to conditions: Cyt c concentration of 2 μM for cell incubation. Here is the method: as §1
In data set [3] the test system is HeLa cells. The data set can be described thus: Toxicity study of CB and cholesterol tag (CellTiter-Blue). Particulars: FIG. 14, HeLa cells. Here is the method: Cytotoxicity of the tag was evaluated on HeLa cells. Briefly, cells were seeded in 96-well plates at 3,000 cells/well. CB, the tag, or tagged protein (BSA) was added at a series of concentrations from 10 μM to 3.3 nM. Untreated cells were used as control. After 48-h incubation, 10 μl of CellTiter-Blue reagent (Promega) was added to the wells and the culture was incubated for another 1 h. Cell viability was examined on a microplate reader (Tecan) at ex/em=560/590 nm and the toxicity was analyzed according to the manufacturer's protocol.
(The colour change of resazurin is a common sign of viable cells or microbes.)

With “Cyt c alone: cytochrome c, intracellular signaling protein for apoptosis, m.w. ~12 kDa, untagged”, in the data set on HeLa cells [1], the “intracellular fluorescence of AF488-labeled Cyt c” value was “minor dotted intracellular green fluorescence”. In the data set with HeLa cells [2], the cell viability entry is “no sign of toxicity”.

On to `CCOc1ccc(Nc2ccc(/C(=C3C=C/C(=[N+](/CC)Cc4cccc(S(=O)(=O)[O-])c4)C=C/3C)c3ccc(N(CC)Cc4cccc(S(=O)(=O)[O-])c4)cc3C)cc2)cc1.[Na+]` [Coomassie blue], for which the biocompatibility result with HeLa cells [3] was “biocompatible”.
